Patent publication US8114862B2, “TGR5 modulators and methods of use thereof” (Intercept Pharmaceuticals, Inc., priority 2008, dated 2012)

How the values were obtained:
[1] = Stability in human liver microsomes; details: microsomes
[2] = Stability in human liver S9 fraction
[3] = tested on: HepG2 cells; test: HepG2 cytotoxicity (ATP decrease); details: read-out: CYTOTOXICITY ATP decrease EC50; 4 h
[4] = molecular target: T1, CAR (Homo sapiens, UniProt Q14994); test: CAR coactivator recruitment (Lanthascreen); type: biochemical; details: read-out: CAR Activation EC50
T1 construct: purchased Invitrogen
T1 sequence (Q14994 109-352 limits assumed): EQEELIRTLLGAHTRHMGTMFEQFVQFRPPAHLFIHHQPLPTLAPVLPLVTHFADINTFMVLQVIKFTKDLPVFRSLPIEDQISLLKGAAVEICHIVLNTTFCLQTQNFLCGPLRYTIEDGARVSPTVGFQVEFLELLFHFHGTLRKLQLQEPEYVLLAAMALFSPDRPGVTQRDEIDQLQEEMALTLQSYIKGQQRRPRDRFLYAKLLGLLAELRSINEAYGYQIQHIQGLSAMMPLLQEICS
Description: CAR: Coactivator Recruitment (Lanthascreen)
Lanthascreen assay (Invitrogen) was used for nulear receptor selectivity assay. The kit uses a terbium-labeled anti-GST antibody, a fluorescein-labeled coactivator peptide, and a NR ligand-binding domain that is tagged with glutathione-S-transferase (GST) in a homogenous mix-and-read assay format. […] Following 1 hour incubation in the dark, TR-FRET measurements were made in the Envision. […] The data was analyzed using GraphPad Prism using the sigmoidal curve equation with variable slope to obtain EC50 values.

[5] = Water solubility; details: 0.1 M HCl
[6] = Octanol/water partition coefficient (shake-flask); type: physicochemical; details: pH 8
[7] = molecular target: T2, LXRα (Homo sapiens, UniProt Q13133); test: LXR coactivator recruitment (alphascreen); type: biochemical
T2 sequence (Q13133 1-447): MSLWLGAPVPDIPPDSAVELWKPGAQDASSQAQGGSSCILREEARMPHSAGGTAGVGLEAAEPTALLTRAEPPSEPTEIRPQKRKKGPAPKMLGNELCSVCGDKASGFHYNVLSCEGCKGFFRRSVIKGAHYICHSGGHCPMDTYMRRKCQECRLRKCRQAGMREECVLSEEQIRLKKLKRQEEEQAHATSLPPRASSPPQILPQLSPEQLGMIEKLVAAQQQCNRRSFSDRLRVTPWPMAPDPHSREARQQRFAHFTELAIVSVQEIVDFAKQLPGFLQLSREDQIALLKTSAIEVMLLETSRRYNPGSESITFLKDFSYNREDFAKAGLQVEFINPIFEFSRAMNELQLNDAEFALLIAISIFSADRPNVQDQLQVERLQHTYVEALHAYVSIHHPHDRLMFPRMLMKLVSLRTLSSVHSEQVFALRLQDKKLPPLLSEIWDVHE

[8] = Critical micellar concentration by surface tension; type: physicochemical; details: […] NaCl water solution
Description: The critical micellar concentration (CMC) was determined by surface tension (ST) measurements using a maximum bubble-pressure method which give surface tension values […] by potential impurities like static methods are. The tensiometer was a […] Research Corp., Milwaukee, Wis.) equipped with two glass probes of 0.5 and 4.0 mm diameters connected to a source of nitrogen. […] The surface tension values were plotted against the logarithm of the bile salt concentration; the regression lines corresponding to the two parts of the curve (monomeric and micellar phases) were calculated using the method of least squares, and the intersection of the lines was taken as the CMC value. From the ST vs concentration curves the value of the surface tension at the CMC (equilibrium between monomers and multimers species) was also calculated giving information about the detergency power which is related to the size of the micelles with associate surface tension lowering capacity. The CMC was evaluated by surface tension measurements in non equilibrium conditions i.e. in conditions that impurities slightly affect the surface tension results (FIG. 10).

[9] = molecular target: T3, PPARδ (Homo sapiens, UniProt Q03181); test: PPARδ coactivator recruitment assay
T3 sequence (Q03181 211-439 limits assumed): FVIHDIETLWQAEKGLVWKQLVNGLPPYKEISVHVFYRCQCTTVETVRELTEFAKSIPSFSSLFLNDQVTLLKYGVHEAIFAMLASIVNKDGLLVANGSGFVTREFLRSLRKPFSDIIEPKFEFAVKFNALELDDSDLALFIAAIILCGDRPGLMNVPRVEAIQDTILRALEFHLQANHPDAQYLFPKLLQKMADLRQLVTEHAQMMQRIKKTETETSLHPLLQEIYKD

[10] = molecular target: bovine serum albumin (Bos taurus, UniProt P02769); test: Albumin binding by equilibrium dialysis; type: in vitro ADME; details: 100 μM BA in 5% bovine serum albumin-saline, pH 7.2
Sequence of bovine serum albumin (P02769 25-607): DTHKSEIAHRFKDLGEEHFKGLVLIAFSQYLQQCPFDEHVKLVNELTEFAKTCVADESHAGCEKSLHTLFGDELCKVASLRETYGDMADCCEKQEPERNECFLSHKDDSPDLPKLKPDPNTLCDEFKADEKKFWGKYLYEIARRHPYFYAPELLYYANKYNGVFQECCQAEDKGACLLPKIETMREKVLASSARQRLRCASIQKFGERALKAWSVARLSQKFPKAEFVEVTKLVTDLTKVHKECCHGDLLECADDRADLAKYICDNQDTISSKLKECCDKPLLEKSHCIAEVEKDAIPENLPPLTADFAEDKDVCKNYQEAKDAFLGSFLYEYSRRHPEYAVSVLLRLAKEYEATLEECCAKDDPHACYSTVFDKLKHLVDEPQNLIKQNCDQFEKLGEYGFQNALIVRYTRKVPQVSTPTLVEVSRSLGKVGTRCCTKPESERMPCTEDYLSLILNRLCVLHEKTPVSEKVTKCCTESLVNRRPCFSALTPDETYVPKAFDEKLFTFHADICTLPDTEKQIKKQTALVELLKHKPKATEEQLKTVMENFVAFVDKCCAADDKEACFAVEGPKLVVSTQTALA
Description: The extent of albumin binding was evaluated by equilibrium dialysis at a fixed BA-albumin ratio. BA was dissolved at a concentration of 100 μM in 5% bovine serum albumin-saline solution (pH 7.2) and left to stand for 24 h at 25° C. Two milliliters of this solution was dialyzed in cellulose sacs having a molecular weight cut-off of 12-14,000 against 25 ml of saline solution. The system was equilibrated by mechanical gently shaking for 72 h at 25° C. BA concentrations of the dialyzed solution (corresponding to the free unbound fraction) and of the starting solution were determined with HPLC-ESI-MS/MS in the same conditions of the previous analysis.
The percent of albumin binding was calculate from the initial BA concentration and from the unbound concentration in the dialyzed fraction.

[11] = molecular target: T4, VDR (Homo sapiens, UniProt P11473); test: VDR coactivator recruitment assay
T4 sequence (P11473 127-423 limits assumed): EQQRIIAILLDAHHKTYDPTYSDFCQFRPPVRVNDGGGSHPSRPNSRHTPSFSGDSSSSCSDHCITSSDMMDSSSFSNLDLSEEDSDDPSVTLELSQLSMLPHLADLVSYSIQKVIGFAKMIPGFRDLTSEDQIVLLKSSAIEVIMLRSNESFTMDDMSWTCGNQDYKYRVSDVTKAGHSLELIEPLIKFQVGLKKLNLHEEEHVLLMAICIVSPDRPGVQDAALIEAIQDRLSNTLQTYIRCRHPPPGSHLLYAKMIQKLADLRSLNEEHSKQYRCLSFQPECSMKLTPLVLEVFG

Row | Compound | half-life [1] [min] | half-life [2] [min] | EC50 [3] [µM] | EC50 [4] [µM] | Ws (water solubility, protonated species) [5] [µM] | LogPA- (1-octanol-water partition coefficient, ionized species) [6] | LXRα Activation EC50 [7] | CMC […] Na+ [8] [mM] | STCMC (surface tension at CMC) [8] [Dyne/cm] | PPARδ Activation EC50 [9] | Albumin Binding [10] [%] | VDR Activation EC50 [11]
1 | C[C@]12CC[C@H]3[C@@H](CCC4=CC(=O)CC[C@@]43C)[C@@H]1CC[C@@H]2O [Testosterone, reference compound] | 8 to 20 | 39 |  |  |  |  |  |  |  |  |  | 
2 | C[C@H](CCC(=O)O)[C@H]1CC[C@H]2[C@@H]3[C@@H](O)C[C@@H]4C[C@H](O)CC[C@]4(C)[C@H]3CC[C@]12C [UDCA] |  |  | > 1000 | > 250 | 7.5 | 2.2 | No activity | 6.0 | 50.5 | No activity | 94 | No activity
